From patent US7431088B2, “Methods of controlled acidization in a wellbore” (Halliburton Energy Services, Inc., priority 2006, dated 2008)
Where a name gives a salt, the structure may show the parent alone.

Experiments:
[1] = for hydrolysis / reaction rate (comparison in words): deionized water, molar ratio of CaCO3
Protocol: In the following examples, various ester hydrolysis reactions were run in the presence of calcium carbonate (CaCO3) to simulate the consumption of filter cake material. The acid evolved in each reaction was measured per unit of time. The acid generated upon hydrolysis was rapidly consumed in a secondary reaction that produced carbon dioxide (CO2). The half-life was secured when half of the CaCO3 was consumed. That is, using PV=nRT, the amount of CaCO3 that would yield approximately 1 liter of CO2 was calculated to be about 4.47 grams. We doubled the amount of CaCO3 (8.94 grams) for the reactions and then calculated the half-life based on the yield of 1 liter of CO2. Unless otherwise specified, all half-life quotations are actually the time required for 4.47 grams of CaCO3 to be consumed.
The following general procedure was used in each of the examples. The closed system reactor shown in FIG. 1 was used to measure the amount of CO2 gas that evolved in each reaction. Water or brine was added to a boiling flask 10, which was heated to 100° C. […] Once the liquid was boiling, a weighed amount of ester was added to flask 10. The amount of ester employed was always in ratio to the water or to the make-up water used to formulate the brine except where commercially available brines were used. Following addition of the ester to the boiling liquid, a reflux condenser 12 was affixed to flask 10. The top of condenser 12 was fixed with an adapter 14 to an inlet tube 18 in a 2-hole rubber stopper 16. The inlet tube 18 was passed through stopper 16, providing a seal. An outlet tube 22 was run from the bottom of a flask 20 to a 1,000 mL graduated cylinder 24. The flask 20 was charged with XP-07 base oil, commercially available from Halliburton Energy Services, Inc. The outlet tube 22 served the purpose of discharging the oil into graduated cylinder 24. The hydrolysis reaction produced acid in flask 10 that reacted with the CaCO3 to produce CO2 gas. The gas displaced the oil in flask 20 into graduated cylinder 24. The rate of CO2 evolution thus could be monitored visually by reading of the amount of oil in graduated cylinder 24 per unit of time.
Solutions containing various esters of lactic acid and of glycerol (i.e., monoacetin, ethyl lactate, triacetin, tripropionin), butyl formate (a control), and BDF-325 diethyleneglycol diformate (a control) in neutral water were prepared and combined with a molar ratio of CaCO3. Hydrolysis reactions were then carried out using the resulting solutions at 100° C. The hydrolysis reactions were monitored, and the half-lives of the esters were compared. The volume of oil displaced by the CO2 gas is plotted as a function of time in FIG. 2. […] The butyl formate to CaCO3 molar ratio was doubled for comparison purposes.
Solutions containing 10 volume % monoacetin, diacetin, and triacetin in deionized water were prepared and combined with a molar ratio of CaCO3. Hydrolysis reactions were then carried out using the resulting solutions at 100° C. The hydrolysis reactions were monitored, and the half-lives of the esters were compared. The volume of oil displaced by the CO2 gas is plotted as a function of time in FIG. 3.

[2] = Solubility of ester in water; format: physicochemical

SMILES	effect of doubling the ester to CaCO3 molar ratio on reaction rate [1]	hydrolysis / reaction rate (comparison in words) ([1]; 100° C.)	also measured
CCCCOC(=O)C(C)O (stereo not drawn) [Butyl lactate]	doubled its reaction rate	faster than that of the butyl formate	–
CCCCOC=O [butyl formate, reference compound]	surprisingly similar	slow reaction rate	solubility in water [2]: relative insolubility
CCOC(=O)C(C)O (stereo not drawn) [Ethyl Lactate]	–	–	hydrolysis performance in different aqueous solutions ([1]; 10 volume % in deionized water and various brines, 100° C.): performed consistently
CC(=O)OCC(O)CO (stereo not drawn) [Monoacetin]	–	–	half-life relative to target ([1]; buffer): within the targeted range
CC(=O)OCC(O)COC(C)=O [Diacetin]	–	very similar	–
CC(=O)OCC(COC(C)=O)OC(C)=O [Triacetin]	–	very similar	–
